Measured values reported in patent US12123060B2, “Method for identifying targets for precision cancer therapy” (Tampere University Foundation sr, priority 2021, dated 2024).

Legend:
Format in all cases: cell-based, human
[1] = system: L1 activity in LNCaP prostate cancer cells; assay: L1-EGFP retrotransposition reporter assay; conditions: carboplatin 5 μM or ENZ 10 μM, 5 days, FIG. 3A
Experimental: FIG. 3. […] (A) The effects of carboplatin (5 μM) or enzalutamide (ENZ, 10 μM) on L1 activity in LNCaP prostate cancer cells analyzed using a retrotransposition L1-EGFP reporter assay and IncuCyte S3 imaging equipped with a green fluorescence channel. Representative IncuCyte cell images are shown for untreated, ENZ, and carboplatin exposed LNCaP cells with green channel only (L1-EGFP) and phase contrast. The control plasmids used included two negative controls (L1Neg-EGFP and L1Mut-EGFP) and a positive control plasmid (L1Pos-EGFP). […] See also FIG. 8. (B) The effects of carboplatin or ENZ on ORF1 and ORF2 mRNA expression in LNCaP, VCaP, PC-3, and 22Rv1 prostate cancer cells. (C) L1 ORF1 and ORF2 mRNA levels from pre- and post-castration xenograft samples from LuCaP 77 and LuCaP 105 (23). […]
FIG. 8. […] (A) The effects of carboplatin (5 μM) or enzalutamide (ENZ, 10 μM) on L1 activity in LNCaP prostate cancer cells analyzed using a retrotransposition L1-EGFP reporter assay and IncuCyte S3 imaging system equipped with a green fluorescence channel. […]
Carboplatin or enzalutamide dissolved in DMSO and culture medium without FBS was added after a 24-hour initial incubation period. […] LNCaP prostate cancer cells were transfected with L1 plasmid or positive and negative control plasmids and treated with carboplatin (5 μM) or ENZ (10 μM) the day after transfection, and cells were monitored for five days. […]

[2] = system: L1 ORF1 and ORF2 mRNA in LNCaP cells; assay: qPCR of L1 ORF1 and ORF2 mRNA; conditions: for ORF1 and ORF2 mRNA expression compared to control treated cells: 5 days, alone or in combination, AZT 50 μM
Experimental: Carboplatin or enzalutamide dissolved in DMSO and culture medium without FBS was added after a 24-hour initial incubation period. To control cells DMSO diluted in culture medium was added to a final concentration of 0.02%. […]
(§1) The isolation of RNA from cell lines was conducted using TriPure Isolation Reagent (Roche) following the manufacturer's protocol. The concentration of the RNA samples was measured using NanoDrop™ One/OneC Microvolume UV-Vis Spectrophotometer, followed by dilution of the samples to 1 μg/μl. The conversion of 1 μg of RNA to cDNA was done using Transcriptor First Strand cDNA Synthesis Kit (Roche) according to the manufacturer's instructions. The RT-PCR run was performed using LightCycler™ 480 SYBR Green I Master (Roche) and The LightCycler® 480 Real-Time PCR System (Roche) with 96-multiwell format. To allow separate analysis of ORF1 and ORF2, two sets of primer pairs were designed to target the L1RP-ORF1 (ORF1 mRNA thereafter), L1RP-ORF2 (ORF2 mRNA thereafter) and FANCI (Table 2). Each run included two biological and two technical replicates per treatment with fold change calculated based on the obtained Ct-values. Normalization was done against GAPDH values measured (Table 2).

[3] = system: L1 ORF1 and ORF2 mRNA in VCaP cells; assay: qPCR of L1 ORF1 and ORF2 mRNA; conditions: for increase in ORF1 and ORF2 expression: 5-day treatment, carboplatin 5 μM or ENZ 10 μM, FIG. 3B
Experimental: Carboplatin or enzalutamide dissolved in DMSO and culture medium without FBS was added after a 24-hour initial incubation period. To control cells DMSO diluted in culture medium was added to a final concentration of 0.02%. LNCaP prostate cancer cells were transfected with L1 plasmid or positive and negative control plasmids and treated with carboplatin (5 μM) or ENZ (10 μM) the day after transfection, and cells were monitored for five days.
as §1

LNCaP cells = assay: Cell proliferation assay (siRNA knockdown, cell confluence); conditions: 10 μM carboplatin
Experimental: For cell proliferation assays, cells were reverse transfected with 25 nM siRNAs against FANCI (Dharmacon, ON-TARGETplus SMARTpool, L-022320-01-0005) or Scr control (Dharmacon, non-targeting pool), using OPTI-MEM and Lipofectamine 2000 transfection reagent (Invitrogen) in four biological replicates in a 384-well plate. LNCaP cells were plated on the wells (1000 cells/well) in antibiotic free regular growth medium. After 48 h, vehicle control (DMSO) or Carboplatin dilutions were added into wells in appropriate concentrations diluted in FBS free medium and the cell confluence was monitored for five days using live-cell imaging (IncuCyte S3, Sartorius). Cell confluence was determined by automatic counting using IncuCyte S3 Image analysis tools. Cell confluence (confluence mask) on each time point was calculated based on phase-contrast imaging with a minimum area filter of 150 μm2, segmentation adjustment of 1.0, 100 μm2 cleanup and size adjust of −2 pixels. Confluence curves were compared for statistical differences between treatment conditions at each timepoint using t-test.

L1 ORF1p in LNCaP cells = assay: Western blot of L1 ORF1 protein; conditions: carboplatin alone, or carboplatin with further addition of AZT, FIG. 9D
Experimental: FIG. 9. Further validation of L1 activation and suppression. (A) L1 mRNA levels from pre- and post-castration samples from LuCaP 77 and LuCaP 105 (16). […] Asterisks indicate significant differences between treatment conditions based on t-test (*, p<0.05; **, p<0.01; ***, p<0.001).
Whole cell lysates were prepared using SDS sample buffer (66 mM Tris-HCl pH 6.8, 13% Glyserol, 2.1% SDS and 0.01% Bromophenol Blue) with protease inhibitor added (cOmplete™ Protease Inhibitor Cocktail, Roche).

CNC(=O)c1ccc(N2C(=S)N(c3ccc(C#N)c(C(F)(F)F)c3)C(=O)C2(C)C)cc1F [ENZ, enzalutamide]
L1 retrotransposition (L1-EGFP reporter, green fluorescence) [1]: relative increase in L1-EGFP reporter, below statistical significance | ORF1 and ORF2 mRNA induction ([2]; 25-day incubation, ENZ alone or with AZT, FIG. 3D): 8 fold | ORF1 and ORF2 mRNA expression compared to control treated cells ([2]; FIG. 3D): no significant changes | increase in ORF1 and ORF2 expression [3]: 5.5 fold

N.N.O=C([O-])C1(C(=O)[O-])CCC1.[Pt+2] [carboplatin]
proliferation of siFANCI LNCaP cells on carboplatin exposure (LNCaP cells): significantly decreased proliferation | L1 retrotransposition (L1-EGFP reporter, green fluorescence) [1]: L1 retrotransposition indicated by green fluorescence appeared | increase in ORF1 and ORF2 expression ([2]; 5-day treatment, carboplatin 5 μM, FIG. 3B): approximately 4 fold | ORF1 and ORF2 mRNA expression compared to control treated cells ([2]; FIG. 3D): approximately 4 fold | increase in ORF1 and ORF2 expression [3]: 7 fold | ORF1 and ORF2 mRNA expression compared to control treated cells ([3]; 5 days, alone or in combination, AZT 50 μM, FIG. 3D): ~9 fold | level of L1 ORF1p (Western blot) (L1 ORF1p in LNCaP cells): significantly increased
